Read-outs that look alike come from different tables or passages of the source.
How the values were obtained:
[1] = Toxicokinetics test in the satellite groups (UPLC-MS/MS of rat plasma); format: in vivo; conditions: for AUC(0-t) / Cmax / Tmax / half-life: SD, rat, plasma, po; for half-life: read-out: T1/2 mean (converted)
Method: SD rats (5 ~ 6 weeks, 3/group/sex) were randomly allocated to three treatment groups and given the same dosage as those in the repeated toxicity experiment for 28 days. […] Carbamazepine was chosen as the internal standard (IS). The blood samples were centrifuged to obtain plasma. Then, 300 μL of acetonitrile containing 40 ng of IS was added to 100 μL of plasma. After vortexing for 1 min, the mixture was centrifuged at 17,000 rpm for 15 min at 4 °C. The supernatant of each sample was injected into a UPLC–MS/MS system for determination. The injection volume was 1 μL. UPLC–MS analysis was performed on a Thermo Fisher Scientific Ultimate 3000 UPLC system (San Jose, USA) and an API 4000 QTRAP mass spectrometer (Foster City, USA) equipped with an ESI source. The mobile phase consisted of 2 solvents: (A) water containing 0.1% formic acid and (B) 100% acetonitrile. For MS, multiple reaction monitoring (MRM) in positive ion mode was used as the scanning mode for the main components and IS in the plasma samples. The dwell time (DT), collision energy (CE), quadrupole 1 pre-rod bias (Q1) and quadrupole 3 pre-rod bias (Q3) are listed in Table 3.

[2] = test system: CYP3A4, CYP1A2 and CYP2D6; conditions: cited from earlier work
[3] = female, female rats, Day 1, highest dose (berberine 72.08, epiberberine 7.42, coptisine 7.42, palmatine 18.26, jatrorrhizine 2.80, columbamine 5.93 mg/kg)
[4] = female, female rats, Day 1, middle dose (berberine 24.03, epiberberine 2.47, coptisine 2.47, palmatine 6.09, jatrorrhizine 0.93, columbamine 1.98 mg/kg)
[5] = female, female rats, Day 28, highest dose (berberine 72.08, epiberberine 7.42, coptisine 7.42, palmatine 18.26, jatrorrhizine 2.80, columbamine 5.93 mg/kg)
[6] = female, female rats, Day 28, lowest dose (berberine 8.01, epiberberine 0.82, coptisine 1.38, palmatine 2.03, jatrorrhizine 0.31, columbamine 0.66 mg/kg)
[7] = female, female rats, Day 28, middle dose (berberine 24.03, epiberberine 2.47, coptisine 2.47, palmatine 6.09, jatrorrhizine 0.93, columbamine 1.98 mg/kg)
[8] = male, male rats, Day 1, lowest dose (berberine 8.01, epiberberine 0.82, coptisine 1.38, palmatine 2.03, jatrorrhizine 0.31, columbamine 0.66 mg/kg)
[9] = male, male rats, Day 1, middle dose (berberine 24.03, epiberberine 2.47, coptisine 2.47, palmatine 6.09, jatrorrhizine 0.93, columbamine 1.98 mg/kg)
[10] = male, male rats, Day 28, highest dose (berberine 72.08, epiberberine 7.42, coptisine 7.42, palmatine 18.26, jatrorrhizine 2.80, columbamine 5.93 mg/kg)
[11] = male, male rats, Day 28, lowest dose (berberine 8.01, epiberberine 0.82, coptisine 1.38, palmatine 2.03, jatrorrhizine 0.31, columbamine 0.66 mg/kg)
[12] = male, male rats, Day 28, middle dose (berberine 24.03, epiberberine 2.47, coptisine 2.47, palmatine 6.09, jatrorrhizine 0.93, columbamine 1.98 mg/kg)

Compound COc1cc2c(cc1O)CC[n+]1cc3c(OC)c(OC)ccc3cc1-2 [jatrorrhizine] has an AUC(0-t) ([1]; female, 0.4 g/kg, female rats, Day 1, low dose TAZF 0.4 g/kg by gavage, read-out: AUC0-t) of 25.6 ± 30 ng·h/mL, a Cmax ([1]; female, 0.4 g/kg, female rats, Day 1, low dose TAZF 0.4 g/kg by gavage, read-out: Cmax) of 11 ± 7.79 ng/mL and an AUC(0-t) ([1]; female, 0.4 g/kg, female rats, Day 28, low dose TAZF 0.4 g/kg by gavage, read-out: AUC0-t) of 23.9 ± 27.7 ng·h/mL. For the same compound, the Cmax ([1]; female, 0.4 g/kg, female rats, Day 28, low dose TAZF 0.4 g/kg by gavage, read-out: Cmax) was 11.2 ± 15 ng/mL, the AUC(0-t) ([1]; female, 3.7 g/kg, female rats, Day 1, high dose TAZF 3.7 g/kg by gavage, read-out: AUC0-t) was 22.1 ± 4.83 ng·h/mL and the Cmax ([1]; female, 3.7 g/kg, female rats, Day 1, high dose TAZF 3.7 g/kg by gavage, read-out: Cmax) was 14.8 ± 10.7 ng/mL. The AUC(0-t) ([1]; female, 3.7 g/kg, female rats, Day 28, high dose TAZF 3.7 g/kg by gavage, read-out: AUC0-t) was 11.4 ± 1.79 ng·h/mL, the Cmax ([1]; female, 3.7 g/kg, female rats, Day 28, high dose TAZF 3.7 g/kg by gavage, read-out: Cmax) was 2.08 ± 0.41 ng/mL and the Tmax [1, 3] was 0.5 h. The AUC(0-t) ([1]; female, female rats, Day 1, highest dose (berberine 72.08, epiberberine 7.42, coptisine 7.42, palmatine 18.26, jatrorrhizine 2.80, columbamine 5.93 mg/kg), read-out: AUC0-t mean) was 22.1 ng·h/mL, the Cmax ([1]; female, female rats, Day 1, highest dose (berberine 72.08, epiberberine 7.42, coptisine 7.42, palmatine 18.26, jatrorrhizine 2.80, columbamine 5.93 mg/kg), read-out: Cmax mean) was 14.8 ng/mL and the half-life [1, 3] was 3.96 h. For the same compound, the AUC(0-t) ([1]; female, female rats, Day 1, lowest dose (berberine 8.01, epiberberine 0.82, coptisine 1.38, palmatine 2.03, jatrorrhizine 0.31, columbamine 0.66 mg/kg), read-out: AUC0-t mean) was 25.6 ng·h/mL, the Cmax ([1]; female, female rats, Day 1, lowest dose (berberine 8.01, epiberberine 0.82, coptisine 1.38, palmatine 2.03, jatrorrhizine 0.31, columbamine 0.66 mg/kg), read-out: Cmax mean) was 11 ng/mL and the half-life ([1]; female, female rats, Day 1, lowest dose (berberine 8.01, epiberberine 0.82, coptisine 1.38, palmatine 2.03, jatrorrhizine 0.31, columbamine 0.66 mg/kg)) was 2.64 h. It also gave a Tmax [1, 4] of 0.83 h, an AUC(0-t) ([1]; female, female rats, Day 1, middle dose (berberine 24.03, epiberberine 2.47, coptisine 2.47, palmatine 6.09, jatrorrhizine 0.93, columbamine 1.98 mg/kg), read-out: AUC0-t mean) of 19.9 ng·h/mL and a Cmax ([1]; female, female rats, Day 1, middle dose (berberine 24.03, epiberberine 2.47, coptisine 2.47, palmatine 6.09, jatrorrhizine 0.93, columbamine 1.98 mg/kg), read-out: Cmax mean) of 14.6 ng/mL. It also gave a half-life [1, 4] of 3.57 h, a Tmax [1, 5] of 1.33 h and an AUC(0-t) ([1]; female, female rats, Day 28, highest dose (berberine 72.08, epiberberine 7.42, coptisine 7.42, palmatine 18.26, jatrorrhizine 2.80, columbamine 5.93 mg/kg), read-out: AUC0-t mean) of 11.4 ng·h/mL. It also gave a Cmax ([1]; female, female rats, Day 28, highest dose (berberine 72.08, epiberberine 7.42, coptisine 7.42, palmatine 18.26, jatrorrhizine 2.80, columbamine 5.93 mg/kg), read-out: Cmax mean) of 2.08 ng/mL, a half-life [1, 5] of 4.98 h and a Tmax [1, 6] of 4.17 h. For the same compound, the AUC(0-t) ([1]; female, female rats, Day 28, lowest dose (berberine 8.01, epiberberine 0.82, coptisine 1.38, palmatine 2.03, jatrorrhizine 0.31, columbamine 0.66 mg/kg), read-out: AUC0-t mean) was 23.9 ng·h/mL, the Cmax ([1]; female, female rats, Day 28, lowest dose (berberine 8.01, epiberberine 0.82, coptisine 1.38, palmatine 2.03, jatrorrhizine 0.31, columbamine 0.66 mg/kg), read-out: Cmax mean) was 11.2 ng/mL and the half-life [1, 6] was 3.39 h. The Tmax [1, 7] was 1 h, the AUC(0-t) ([1]; female, female rats, Day 28, middle dose (berberine 24.03, epiberberine 2.47, coptisine 2.47, palmatine 6.09, jatrorrhizine 0.93, columbamine 1.98 mg/kg), read-out: AUC0-t mean) was 3.87 ng·h/mL and the Cmax ([1]; female, female rats, Day 28, middle dose (berberine 24.03, epiberberine 2.47, coptisine 2.47, palmatine 6.09, jatrorrhizine 0.93, columbamine 1.98 mg/kg), read-out: Cmax mean) was 1.29 ng/mL. The half-life [1, 7] was 5.33 h, the T1/2 mean ([1]; male rats, Day 1, highest dose (berberine 72.08, epiberberine 7.42, coptisine 7.42, palmatine 18.26, jatrorrhizine 2.80, columbamine 5.93 mg/kg)) was 9.68 h and the AUC(0-t) ([1]; male, 0.4 g/kg, male rats, Day 1, low dose TAZF 0.4 g/kg by gavage, read-out: AUC0-t) was 52 ± 20.4 ng·h/mL. The Cmax ([1]; male, 0.4 g/kg, male rats, Day 1, low dose TAZF 0.4 g/kg by gavage, read-out: Cmax) was 11.8 ± 10.8 ng/mL, the AUC(0-t) ([1]; male, 0.4 g/kg, male rats, Day 28, low dose TAZF 0.4 g/kg by gavage, read-out: AUC0-t) was 8.62 ± 3.21 ng·h/mL and the Cmax ([1]; male, 0.4 g/kg, male rats, Day 28, low dose TAZF 0.4 g/kg by gavage, read-out: Cmax) was 16.4 ± 16 ng/mL. For the same compound, the AUC(0-t) ([1]; male, 3.7 g/kg, male rats, Day 1, high dose TAZF 3.7 g/kg by gavage, read-out: AUC0-t) was 101 ± 35.3 ng·h/mL, the Cmax ([1]; male, 3.7 g/kg, male rats, Day 1, high dose TAZF 3.7 g/kg by gavage, read-out: Cmax) was 17.7 ± 11 ng/mL and the AUC(0-t) ([1]; male, 3.7 g/kg, male rats, Day 28, high dose TAZF 3.7 g/kg by gavage, read-out: AUC0-t) was 25.6 ± 6.74 ng·h/mL. It also gave a Cmax ([1]; male, 3.7 g/kg, male rats, Day 28, high dose TAZF 3.7 g/kg by gavage, read-out: Cmax) of 7.97 ± 7.64 ng/mL, a Tmax ([1]; male, male rats, Day 1, highest dose (berberine 72.08, epiberberine 7.42, coptisine 7.42, palmatine 18.26, jatrorrhizine 2.80, columbamine 5.93 mg/kg)) of 4 h and an AUC(0-t) ([1]; male, male rats, Day 1, highest dose (berberine 72.08, epiberberine 7.42, coptisine 7.42, palmatine 18.26, jatrorrhizine 2.80, columbamine 5.93 mg/kg), read-out: AUC0-t mean) of 101 ng·h/mL. The Cmax ([1]; male, male rats, Day 1, highest dose (berberine 72.08, epiberberine 7.42, coptisine 7.42, palmatine 18.26, jatrorrhizine 2.80, columbamine 5.93 mg/kg), read-out: Cmax mean) was 17.7 ng/mL, the Tmax [1, 8] was 10 h and the AUC(0-t) ([1]; male, male rats, Day 1, lowest dose (berberine 8.01, epiberberine 0.82, coptisine 1.38, palmatine 2.03, jatrorrhizine 0.31, columbamine 0.66 mg/kg), read-out: AUC0-t mean) was 52 ng·h/mL. The Cmax ([1]; male, male rats, Day 1, lowest dose (berberine 8.01, epiberberine 0.82, coptisine 1.38, palmatine 2.03, jatrorrhizine 0.31, columbamine 0.66 mg/kg), read-out: Cmax mean) was 11.8 ng/mL, the half-life [1, 8] was 52.9 h and the Tmax [1, 9] was 1.83 h. For the same compound, the AUC(0-t) ([1]; male, male rats, Day 1, middle dose (berberine 24.03, epiberberine 2.47, coptisine 2.47, palmatine 6.09, jatrorrhizine 0.93, columbamine 1.98 mg/kg), read-out: AUC0-t mean) was 74.5 ng·h/mL, the Cmax ([1]; male, male rats, Day 1, middle dose (berberine 24.03, epiberberine 2.47, coptisine 2.47, palmatine 6.09, jatrorrhizine 0.93, columbamine 1.98 mg/kg), read-out: Cmax mean) was 15.4 ng/mL and the half-life [1, 9] was 68 h. It also gave a Tmax [1, 10] of 1.17 h, an AUC(0-t) ([1]; male, male rats, Day 28, highest dose (berberine 72.08, epiberberine 7.42, coptisine 7.42, palmatine 18.26, jatrorrhizine 2.80, columbamine 5.93 mg/kg), read-out: AUC0-t mean) of 25.6 ng·h/mL and a Cmax ([1]; male, male rats, Day 28, highest dose (berberine 72.08, epiberberine 7.42, coptisine 7.42, palmatine 18.26, jatrorrhizine 2.80, columbamine 5.93 mg/kg), read-out: Cmax mean) of 7.97 ng/mL. It also gave a half-life [1, 10] of 4.48 h, a Tmax [1, 11] of 0.83 h and an AUC(0-t) ([1]; male, male rats, Day 28, lowest dose (berberine 8.01, epiberberine 0.82, coptisine 1.38, palmatine 2.03, jatrorrhizine 0.31, columbamine 0.66 mg/kg), read-out: AUC0-t mean) of 8.62 ng·h/mL. The Cmax ([1]; male, male rats, Day 28, lowest dose (berberine 8.01, epiberberine 0.82, coptisine 1.38, palmatine 2.03, jatrorrhizine 0.31, columbamine 0.66 mg/kg), read-out: Cmax mean) was 16.4 ng/mL, the half-life [1, 11] was 11.1 h and the Tmax [1, 12] was 12 h. The AUC(0-t) ([1]; male, male rats, Day 28, middle dose (berberine 24.03, epiberberine 2.47, coptisine 2.47, palmatine 6.09, jatrorrhizine 0.93, columbamine 1.98 mg/kg), read-out: AUC0-t mean) was 33.3 ng·h/mL, the Cmax ([1]; male, male rats, Day 28, middle dose (berberine 24.03, epiberberine 2.47, coptisine 2.47, palmatine 6.09, jatrorrhizine 0.93, columbamine 1.98 mg/kg), read-out: Cmax mean) was 7.78 ng/mL and the half-life [1, 12] was 2.72 h. The “Systemic exposure after 28 days of administration vs single administration” value ([1]; rats, oral TAZF) was “much lower” and the “Metabolism by CYP3A4, CYP1A2 and CYP2D6” value [2] was “metabolized”.

— PMC9377102, “Toxicity and toxicokinetics of the ethanol extract of Zuojin formula” (BMC Complementary Medicine and Therapies, 2022)
